# Assay results as given in US20120269730A1, “Intracellular Delivery of Contrast Agents with Functionalized Nanoparticles” (Northwestern University, priority 2009, published 2012).
# Values joined by “and” are separate entries in the source; they are usually repeats but may differ in a detail not shown here. Equal entries are not always repeated. Where two headings read alike, the source gives them in different places.
# Assays:
# [1] = T1-weighted MR imaging and T1 analysis of solution phantoms (3T and 14.1T); type: physicochemical
# Description: (§1) 14.1T MR imaging and T1 measurements were performed on a General Electric/Bruker Omega 600WB 14.1T imaging spectrometer fitted with accustar shielded gradient coils at 25° C. For solution phantoms, 50 […], of 60, 40 and 20 μM Gd(III) (DOTA-Gd(III) and Gd(III)-AuNP) in complete cell media were added to flame-sealed 5¾″ Pasteur pipettes and centrifuged at 4.0° C. and 100×g for 5.0 minutes. Capillaries were then placed in a custom-made glass capillary holder and imaged in a 20 mm birdcage coil. For cell phantoms, approximately 1.5×10^6 NIH/3T3 cells were incubated with 20 or 5.0 μM ([Gd(III)]) Gd(III)-AuNP or DOTA-Gd(III) for 24 hours, rinsed two times with DPBS, and harvested with trypsin. After addition of complete media (1.0 mL total volume) cells were added to flame-sealed 5¾″ Pasteur pipettes and centrifuged at 4.0° C. and 100×g for 5.0 minutes. Capillaries were then placed in a custom-made glass capillary holder and imaged in a 10 mm birdcage coil. Spin lattice relaxation times (T1) were measured using a saturation recovery pulse sequence with static TE (10.18 ms) and variable TR (350, 500, 750, 1000, 1500, 2500, 4000, 7500, 15000 ms) values. […]
# [2] = data taken from Merbach et al., 37° C., cited from earlier work
# NIH/3T3 cells = assay: 14.1T T1-weighted MR imaging and T1 analysis of labeled cell pellets; type: cell-based; details: 24 hours, about 10^6 cells
# Description: as §1
# NIH/3T3 and HeLa cells = assay: Cell counting and percent cell viability (Guava ViaCount flow cytometry); type: cell-based; details: any of the conditions tested
# Description: Cell Counting and Percent Cell Viability Determination Using a Guava EasyCyte Mini Personal Cell Analyzer (PCA) Flow Cytometry System. Cells were counted and percent cell viability determined via a Guava EasyCyte mini personal cell analyzer (Guava Technologies, Hayward, Calif., USA). Specifically, after cell harvesting an aliquot (10 or 20 μL) of the cell suspensions were mixed with Guava ViaCount reagent (final sample volume of 200 μL) and allowed to stain at room temperature for at least 5 minutes (no longer than 20 minutes). Stained samples were then vortexed for 5 seconds, after which cells were counted and percent cell viability determined via manual analysis using the ViaCount software module. For each sample, 1000 events were acquired with dilution factors that were determined based upon optimum machine performance (approximately 50-200 cells/μL).
# To determine the efficacy of cellular uptake, NIH/3T3 and HeLa cells were labeled with increasing concentrations of DNA-Gd(III)-AuNPs or DOTA-Gd(III) for different amounts of time. Following agent incubation, cells were rinsed with DPBS, counted and then percent viability was assessed via flow cytometry. Gd(III) and Au content were determined via ICP-MS of acid digested samples. […] At all concentrations the Gd(III) uptake was >50-fold higher for DNA-Gd(III)-AuNPs than DOTA-Gd(III). […]
smiles,measurement,setting,value
O=C([O-])CN1CCN(CC(=O)[O-])CCN(CC(=O)O)CCN(CC(=O)[O-])CC1.[Gd+3] [DOTA-Gd(III)],"reduction in T1, solution phantoms","[1]; 14.1T, 25° C., 60 μM Gd(III), complete cell media",31%
same,r1 600 MHz (14.1T),"[1]; per Gd(III) (ionic), image-based, cell media at 25° C.",2.1 mM⁻¹ s⁻¹ and 2.2 mM⁻¹ s⁻¹
same,r1 60 MHz (1.41T),[2],3.2^c mM^−1s^−1
same,r1 60 MHz (1.41T),[2]; listed as unconjugated Gd(III) complex,3.2 mM⁻¹ s⁻¹
same,T1 reduction of labeled cell pellets,NIH/3T3 cells; 5.0 μM Gd(III) incubation,no significant difference from control cell pellets
same,T1 reduction of labeled cell pellets,NIH/3T3 cells; 20 μM Gd(III) incubation,no significant difference from control cell pellets
same,cell toxicity or cell number variation,NIH/3T3 and HeLa cells,no evidence of cell toxicity or cell number variation
